Assay results: US20110172147A1, “NEUROPEPTIDE-2 RECEPTOR (Y-2R) AGONISTS” (priority 2009, published 2011)
Like-named read-outs stand apart in the source and are kept apart here.

Assays:
Y1R = target: T1, Y1R (Homo sapiens, UniProt P25929); assay: CaFlux Assay (FLIPR), Y1R; type: cell-based
T1 sequence (P25929 1-384): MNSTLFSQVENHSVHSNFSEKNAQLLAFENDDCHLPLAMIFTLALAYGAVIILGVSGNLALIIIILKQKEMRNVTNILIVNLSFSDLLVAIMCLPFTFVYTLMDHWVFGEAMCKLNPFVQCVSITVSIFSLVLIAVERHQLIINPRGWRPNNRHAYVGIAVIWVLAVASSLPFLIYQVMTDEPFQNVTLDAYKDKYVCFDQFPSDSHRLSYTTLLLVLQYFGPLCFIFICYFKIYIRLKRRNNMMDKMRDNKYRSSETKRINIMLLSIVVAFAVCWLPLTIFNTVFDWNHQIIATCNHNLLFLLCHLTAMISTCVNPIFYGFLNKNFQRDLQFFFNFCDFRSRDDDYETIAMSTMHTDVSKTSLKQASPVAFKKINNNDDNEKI

hNPY2R = target: T2, hNPY2R (Homo sapiens, UniProt P49146); assay: CaFlux Assay (FLIPR), Y2R; type: cell-based; design: expressed in transfected cells; host or cells: HEK-293 stably transfected with G protein chimera Gαqi9
T2 sequence (P49146 1-381): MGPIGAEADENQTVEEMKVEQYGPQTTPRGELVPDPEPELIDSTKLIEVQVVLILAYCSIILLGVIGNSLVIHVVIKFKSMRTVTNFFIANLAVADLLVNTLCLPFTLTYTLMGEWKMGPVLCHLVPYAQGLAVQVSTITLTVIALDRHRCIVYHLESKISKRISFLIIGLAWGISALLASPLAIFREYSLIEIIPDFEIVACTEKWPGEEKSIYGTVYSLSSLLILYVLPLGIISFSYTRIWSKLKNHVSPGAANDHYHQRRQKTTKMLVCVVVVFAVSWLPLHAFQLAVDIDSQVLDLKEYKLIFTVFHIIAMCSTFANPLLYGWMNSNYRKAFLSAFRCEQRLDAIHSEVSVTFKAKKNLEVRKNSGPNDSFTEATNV
Procedure, shortened: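 HEK-293 cells stably expressing Gαqi9 and the human receptor, dye-loaded 1 h at 37° C, then compound added on FLIPR. Fluorescence read every 1.5 s for 100 s; peak increase over pre-stimulation baseline, expressed as % of positive-control maximal response.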

[1] = FLIPR; read-out: Y1R EC50 (nM) FLIPR
[2] = CaFlux (FLIPR), HEK-293 cells with Gαqi9 and human NPY2 receptor; read-out: Y2R EC50 (nM) FLIPR

| SMILES | EC50 (Y1R; [1]) | EC50 (hNPY2R; [2]) | EC50 (Y1R; read-out: Y1R EC50 (nM) FLIPR; FLIPR) | EC50 (hNPY2R; read-out: Y2R EC50 (nM) FLIPR; CaFlux (FLIPR), HEK-293 cells with Gαqi9 and human NPY2 receptor) |
| --- | --- | --- | --- | --- |
| CCCCCCCCCCCCCCCCCCCC(=O)N[C@@H](CCS(=O)(=O)O)C(=O)N[C@@H](CCS(=O)(=O)O)C(=O)NCCCC[C@H](NC(=O)[C@@H](NC(=O)CCOCCOCCOCCOCCOCCOCCOCCOCCOCCOCCOCCOCCOCCOCCOCCOCCOCCOCCOCCOCCOCCOCCOCCOC)[C@@H](C)CC)C(=O)N1CCN(c2ccc3ncn(CC(=O)N[C@@H](CCCNC(N)=O)C(=O)NC(Cc4c[nH]cn4)C(=O)N[C@@H](Cc4ccc(O)cc4)C(=O)NC(CC(C)C)C(=O)N[C@@H](CC(N)=O)C(=O)NC(Cc4c[nH]c5ccccc45)C(=O)N[C@H](C(=O)N[C@H](C(=O)N[C@@H](CCCNC(=N)N)C(=O)NC(CCC(N)=O)C(=O)N(C)[C@@H](CCCNC(=N)N)C(=O)NC(Cc4ccc(O)cc4)C(N)=O)[C@@H](C)O)C(C)C)c(=O)c3c2)CC1 (stereo partly drawn) [Example 28] | > 6000 nM | 11.1 nM | – | – |
| CC[C@H](C)[C@H](NC(C)=O)C(=O)N[C@@H](CCCCNC(=O)CCOCCOCCOCCOCCOCCOCCOCCOCCOCCOCCOCCOCCOCCOCCOCCOCCOCCOCCOCCOCCOCCOCCOCCOC)C(=O)N1CCN(c2ccc3ncn(CC(=O)N[C@@H](CCCNC(=N)N)C(=O)N[C@@H](Cc4c[nH]cn4)C(=O)N[C@@H](Cc4ccc(O)cc4)C(=O)N[C@@H](CC(C)C)C(=O)N[C@@H](CC(N)=O)C(=O)N[C@@H](Cc4c[nH]c5ccccc45)C(=O)N[C@H](C(=O)N[C@H](C(=O)N[C@@H](CCCNC(=N)N)C(=O)N[C@@H](CCC(N)=O)C(=O)N(C)[C@@H](CCCNC(=N)N)C(=O)N[C@@H](Cc4ccc(O)cc4)C(N)=O)[C@@H](C)O)C(C)C)c(=O)c3c2)CC1 [Example 21] | > 6000 nM | 0.139 nM | – | – |
| CCCCCCCCCCCCCCCCCCCC(=O)N[C@@H](CCS(=O)(=O)O)C(=O)N[C@@H](CCS(=O)(=O)O)C(=O)NCCCC[C@H](NC(=O)[C@@H](NC(=O)CCOCCOCCOCCOCCOCCOCCOCCOCCOCCOCCOCCOCCOCCOCCOCCOCCOCCOCCOCCOCCOCCOCCOCCOC)[C@@H](C)CC)C(=O)N1CCN(c2ccc3ncn(CC(=O)N[C@@H](CCCNC(=N)N)C(=O)NC(Cc4c[nH]cn4)C(=O)N[C@@H](Cc4ccc(O)cc4)C(=O)NC(CC(C)C)C(=O)N[C@@H](CC(N)=O)C(=O)NC(Cc4c[nH]c5ccccc45)C(=O)N[C@H](C(=O)N[C@H](C(=O)N[C@@H](CCCNC(=N)N)C(=O)NC(CCC(N)=O)C(=O)N(C)[C@@H](CCCNC(=N)N)C(=O)NC(Cc4ccc(O)cc4)C(N)=O)[C@@H](C)O)C(C)C)c(=O)c3c2)CC1 (stereo partly drawn) [Example 27] | > 6000 nM | 9.6 nM | – | – |
| CCCCCCCCCCCCCCCCCCCC(=O)NCCCCCC(=O)N[C@H](C(=O)N[C@@H](CCCCNC(=O)CCOCCOCCOCCOCCOCCOCCOCCOCCOCCOCCOCCOCCOCCOCCOCCOCCOCCOCCOCCOCCOCCOCCOCCOC)C(=O)N1CCN(c2ccc3ncn(CC(=O)N[C@@H](CCCNC(=N)N)C(=O)N[C@@H](Cc4c[nH]cn4)C(=O)N[C@@H](Cc4ccc(O)cc4)C(=O)N[C@@H](CC(C)C)C(=O)N[C@@H](CC(N)=O)C(=O)N[C@@H](Cc4c[nH]c5ccccc45)C(=O)N[C@H](C(=O)N[C@H](C(=O)N[C@@H](CCCNC(=N)N)C(=O)N[C@@H](CCC(N)=O)C(=O)N(C)[C@@H](CCCNC(=N)N)C(=O)N[C@@H](Cc4ccc(O)cc4)C(N)=O)[C@@H](C)O)C(C)C)c(=O)c3c2)CC1)[C@@H](C)CC [Example 35] | > 6000 nM | 0.097 nM | – | – |
| CC[C@H](C)[C@H](NC(=O)[C@H](CCC(=O)O)NC(=O)[C@H](CCC(=O)O)NC(=O)CCCCCCCCCCCCCCC(=O)O)C(=O)N[C@@H](CCCCNC(=O)CCOCCOCCOCCOCCOCCOCCOCCOCCOCCOCCOCCOCCOCCOCCOCCOC)C(=O)N1CCN(c2ccc3ncn(CC(=O)N[C@@H](CCCNC(=N)N)C(=O)N[C@@H](Cc4c[nH]cn4)C(=O)N[C@@H](Cc4ccc(O)cc4)C(=O)N[C@@H](CC(C)C)C(=O)N[C@@H](CC(N)=O)C(=O)N[C@@H](Cc4c[nH]c5ccccc45)C(=O)N[C@H](C(=O)N[C@H](C(=O)N[C@@H](CCCNC(=N)N)C(=O)N[C@@H](CCC(N)=O)C(=O)N(C)[C@@H](CCCNC(=N)N)C(=O)N[C@@H](Cc4ccc(O)cc4)C(N)=O)[C@@H](C)O)C(C)C)c(=O)c3c2)CC1 [Example 54] | – | – | > 6000 nM | 292 nM |
| CCCCCCCCCCCCCCCC(=O)N[C@@H](CCS(=O)(=O)O)C(=O)N[C@@H](CCS(=O)(=O)O)C(=O)NCCCC[C@H](NC(=O)[C@@H](NC(=O)CCOCCOCCOCCOCCOCCOCCOCCOCCOCCOCCOCCOCCOCCOCCOCCOCCOCCOCCOCCOCCOCCOCCOCCOC)[C@@H](C)CC)C(=O)N1CCN(c2ccc3ncn(CC(=O)N[C@@H](CCCNC(=N)N)C(=O)NC(Cc4c[nH]cn4)C(=O)N[C@@H](Cc4ccc(O)cc4)C(=O)NC(CC(C)C)C(=O)N[C@@H](CC(N)=O)C(=O)NC(Cc4c[nH]c5ccccc45)C(=O)N[C@H](C(=O)N[C@H](C(=O)N[C@@H](CCCNC(=N)N)C(=O)NC(CCC(N)=O)C(=O)N(C)[C@@H](CCCNC(=N)N)C(=O)NC(Cc4ccc(O)cc4)C(N)=O)[C@@H](C)O)C(C)C)c(=O)c3c2)CC1 (stereo partly drawn) [Example 29] | > 6000 nM | 0.156 nM | – | – |
